Source: patent US11065286B2 (priority 2016, dated 2021)

Columns and labels:
MDA-MB-231 cells = format: cell-based
[1] = system: Renca, MC38, and 4T1 cell lines; format: cell-based, mouse

Question: With `C/C=C/C/C=C/CCC(=O)[C@H]1O[C@H]1C(N)=O` [cerulenin] as the compound, how does the vaccinia replication (MDA-MB-231 cells) read?
Answer: significantly reduced vaccinia replication

Question: With Bafilomycin A1 as the compound, how does the “viral gene expression with HMGB1mut expression in presence of inhibitor” value [1] read?
Answer: loss of the increased viral gene expression
